# Source: patent US8748624B2, “Picolinamido-propanoic acid derivatives useful as glucagon receptor antagonists” (Janssen Pharmaceutica NV, priority 2011, dated 2014)
# What was measured:
# human GCGR = human GCGR (Homo sapiens (Human), UniProt P47871); assay: Cellular functional assay, cAMP readout (glucagon-stimulated cAMP in HEK293 cells expressing human GCGR); format: cell-based; settings: hGluc-1 HEK cells, LANCE TR-FRET, IC50 converted to Ki, average if tested more than once
# Procedure, shortened: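 HEK293 cells stably transfected with full-length human GCGR were exposed to compound for 30 min before a 5-min challenge with […] (final) glucagon. Readout was TR-FRET (LANCE) cAMP versus standard curve; IC50s fitted by non-linear regression and converted to Ki values.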
# [1] = biological target: human glucagon receptor (GCGR) (Homo sapiens (Human), UniProt P47871); assay: Inhibition of 125I-glucagon binding to membranes from HEK293 cells expressing the human glucagon receptor; settings: membranes of hGluc-1 HEK cells, 125I-glucagon 0.3 nM, 2 hours room temperature; IC50 converted to Ki; average if tested more than once
# Procedure, shortened: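 Filtration binding assay on membranes from HEK293 cells stably expressing full-length human GCGR, 6 μg protein/well, with 0.3 nM ¹²⁵I-glucagon plus compound, 2 h at room temperature. Buffer: 50 mM HEPES pH 7.4, 5 mM MgCl2, 1 mM CaCl2, 0.2% BSA. IC50 by non-linear regression, converted to Ki.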
# Chain of human GCGR (P47871 26-477): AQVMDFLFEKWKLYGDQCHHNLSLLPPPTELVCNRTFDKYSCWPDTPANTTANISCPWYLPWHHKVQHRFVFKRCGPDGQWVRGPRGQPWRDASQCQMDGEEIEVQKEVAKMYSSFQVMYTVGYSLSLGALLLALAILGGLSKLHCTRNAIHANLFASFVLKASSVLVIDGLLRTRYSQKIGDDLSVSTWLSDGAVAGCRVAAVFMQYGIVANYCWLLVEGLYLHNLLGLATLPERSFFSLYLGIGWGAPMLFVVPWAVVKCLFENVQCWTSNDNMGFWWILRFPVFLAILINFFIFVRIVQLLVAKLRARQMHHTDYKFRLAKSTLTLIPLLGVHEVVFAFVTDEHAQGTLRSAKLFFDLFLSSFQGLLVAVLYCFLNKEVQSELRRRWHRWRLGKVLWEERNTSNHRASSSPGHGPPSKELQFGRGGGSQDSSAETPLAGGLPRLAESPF
# Chain of human glucagon receptor (GCGR) (P47871 26-477): as above
SMILES,Ki (human GCGR) [µM],Ki [1] [µM]
"O=C(O)CCNC(=O)c1ccc(-c2cc(C(F)(F)F)c(Cl)cc2CNc2ccc(-c3ccc(Cl)cc3)cc2)cn1 [Compound 80, 3-(5-(4-chloro-2-(((4′-chloro-[1,1′-biphenyl]-4-yl)amino)methyl)-5-(trifluoromethyl)phenyl)picolinamido)propanoic acid]",0.0474,0.0286
"O=C(O)CCNC(=O)c1ccc(-c2cc(C(F)(F)F)c(Cl)cc2CNc2ccc(-c3ccc(Cl)cc3Cl)cc2)cn1 [Compound 82, 3-(5-(4-chloro-2-(((2′,4′-dichloro-[1,1′-biphenyl]-4-yl)amino)methyl)-5-(trifluoromethyl)phenyl)picolinamido)propanoic acid]",0.0346,0.0338
"O=C(O)CCNC(=O)c1ccc(-c2cc(Cl)ccc2CNc2ccc(-c3ccc(F)cc3)c(F)c2)cn1 [Compound 88, 3-(5-(5-chloro-2-(((2,4′-difluoro-[1,1′-biphenyl]-4-yl)amino)methyl)phenyl)picolinamido)propanoic acid]",0.37,0.0443
"O=C(O)CCNC(=O)c1ccc(-c2cc(Cl)ccc2CNc2ccc(-c3ccc(F)cc3F)c(F)c2)cn1 [Compound 89, 3-(5-(5-chloro-2-(((2,2′,4′-trifluoro-[1,1′-biphenyl]-4-yl)amino)methyl)phenyl)picolinamido)propanoic acid]",0.55,0.0606
"O=C(O)CCNC(=O)c1ccc(-c2cc(Cl)ccc2CNc2ccc(-c3ccc(C(F)(F)F)cc3)c(F)c2)cn1 [Compound 90, 3-(5-(5-chloro-2-(((2-fluoro-4′-(trifluoromethyl)-[1,1′-biphenyl]-4-yl)amino)methyl)phenyl)picolinamido)propanoic acid]",0.281,0.0336
"O=C(O)CCNC(=O)c1ccc(-c2cc(Cl)ccc2CNc2ccc(-c3ccc(Cl)cc3)c(F)c2)cn1 [Compound 91, 3-(5-(5-chloro-2-(((4′-chloro-2-fluoro-[1,1′-biphenyl]-4-yl)amino)methyl)phenyl)picolinamido)propanoic acid]",0.295,0.0334
"O=C(O)CCNC(=O)c1ccc(-c2cc(Cl)ccc2CNc2ccc(-c3ccc(Cl)cc3Cl)c(F)c2)cn1 [Compound 92, 3-(5-(5-chloro-2-(((2′,4′-dichloro-2-fluoro-[1,1′-biphenyl]-4-yl)amino)methyl)phenyl)picolinamido)propanoic acid]",0.114,0.0194
"O=C(O)CCNC(=O)c1ccc(-c2cc(Cl)ccc2CNc2ccc(-c3ccc(Cl)c(F)c3)c(F)c2)cn1 [Compound 93, 3-(5-(5-chloro-2-(((4′-chloro-2,3′-difluoro-[1,1′-biphenyl]-4-yl)amino)methyl)phenyl)picolinamido)propanoic acid]",0.295,0.0534
"O=C(O)CCNC(=O)c1ccc(-c2cc(F)c(F)cc2C(=O)Nc2ccc(-c3ccc(Cl)cc3Cl)cc2)cn1 [Compound 94, 3-(5-(2-((2′,4′-dichloro-[1,1′-biphenyl]-4-yl)carbamoyl)-4,5-difluorophenyl)picolinamido)propanoic acid]",0.0785,0.0335
"O=C(O)CCNC(=O)c1ccc(-c2cc(F)c(F)cc2C(=O)Nc2ccc(-c3ccc(F)cc3)cc2)cn1 [Compound 95, 3-(5-(4,5-difluoro-2-((4′-fluoro-[1,1′-biphenyl]-4-yl)carbamoyl)phenyl)picolinamido)propanoic acid]",0.6,0.139
"O=C(O)CCNC(=O)c1ccc(-c2cc(F)c(F)cc2C(=O)Nc2ccc(-c3ccc(C(F)(F)F)cc3)cc2)cn1 [Compound 96, 3-(5-(4,5-difluoro-2-((4′-(trifluoromethyl)-[1,1′-biphenyl]-4-yl)carbamoyl)phenyl)picolinamido)propanoic acid]",0.176,0.0338
"O=C(O)CCNC(=O)c1ccc(-c2cc(F)c(F)cc2C(=O)Nc2ccc(-c3ccc(Cl)cc3)cc2)cn1 [Compound 97, 3-(5-(2-((4′-chloro-[1,1′-biphenyl]-4-yl)carbamoyl)-4,5-difluorophenyl)picolinamido)propanoic acid]",0.225,0.0574
"O=C(O)CCNC(=O)c1ccc(-c2cc(F)c(F)cc2CNc2ccc(-c3ccc(F)c(C(F)(F)F)c3)c(Cl)c2)cn1 [Compound 102, 3-(5-(2-(((2-chloro-4′-fluoro-3′-(trifluoromethyl)-[1,1′-biphenyl]-4-yl)amino)methyl)-4,5-difluorophenyl)picolinamido)propanoic acid]",0.0418,0.0213
"O=C(O)CCNC(=O)c1ccc(-c2cc(F)c(F)cc2CNc2ccc(-c3ccc(Cl)cc3)c(Cl)c2)cn1 [Compound 103, 3-(5-(2-(((2,4′-dichloro-[1,1′-biphenyl]-4-yl)amino)methyl)-4,5-difluorophenyl)picolinamido)propanoic acid]",0.0689,0.0229
"O=C(O)CCNC(=O)c1ccc(-c2cc(F)c(F)cc2CNc2ccc(-c3ccc(Cl)cc3F)c(Cl)c2)cn1 [Compound 104, 3-(5-(2-(((2,4′-dichloro-2′-fluoro-[1,1′-biphenyl]-4-yl)amino)methyl)-4,5-difluorophenyl)picolinamido)propanoic acid]",0.0844,0.0254
"Cc1ccc(-c2ccc(NCc3cc(F)c(F)cc3-c3ccc(C(=O)NCCC(=O)O)nc3)cc2Cl)c(F)c1 [Compound 105, 3-(5-(2-(((2-chloro-2′-fluoro-4′-methyl-[1,1′-biphenyl]-4-yl)amino)methyl)-4,5-difluorophenyl)picolinamido)propanoic acid]",0.255,0.033
"O=C(O)CCNC(=O)c1ccc(-c2cc(F)c(F)cc2CNc2ccc(-c3ccc(Cl)c(C(F)(F)F)c3)c(Cl)c2)cn1 [Compound 106, 3-(5-(2-(((2,4′-dichloro-3′-(trifluoromethyl)-[1,1′-biphenyl]-4-yl)amino)methyl)-4,5-difluorophenyl)picolinamido)propanoic acid]",0.32,0.0261
"O=C(O)CCNC(=O)c1ccc(-c2cc(F)c(F)cc2CNc2ccc(-c3cccc(C(F)(F)F)c3Cl)c(Cl)c2)cn1 [Compound 107, 3-(5-(2-(((2,2′-dichloro-3′-(trifluoromethyl)-[1,1′-biphenyl]-4-yl)amino)methyl)-4,5-difluorophenyl)picolinamido)propanoic acid]",0.0548,0.0237
"O=C(O)CCNC(=O)c1ccc(-c2cc(F)c(F)cc2CNc2ccc(-c3ccc(Cl)cc3Cl)c(Cl)c2)cn1 [Compound 108, 3-(5-(4,5-difluoro-2-(((2,2′,4′-trichloro-[1,1′-biphenyl]-4-yl)amino)methyl)phenyl)picolinamido)propanoic acid]",0.0849,0.0239
"N#Cc1cc(NCc2cc(F)c(F)cc2-c2ccc(C(=O)NCCC(=O)O)nc2)ccc1-c1ccc(F)c(C(F)(F)F)c1 [Compound 109, 3-(5-(2-(((2-cyano-4′-fluoro-3′-(trifluoromethyl)-[1,1′-biphenyl]-4-yl)amino)methyl)-4,5-difluorophenyl)picolinamido)propanoic acid]",0.115,0.0304
"N#Cc1cc(NCc2cc(F)c(F)cc2-c2ccc(C(=O)NCCC(=O)O)nc2)ccc1-c1ccc(Cl)cc1 [Compound 110, 3-(5-(2-(((4′-chloro-2-cyano-[1,1′-biphenyl]-4-yl)amino)methyl)-4,5-difluorophenyl)picolinamido)propanoic acid]",0.17,0.0435
